{"source": "patent US5212072A", "about": "“Polypeptides complementary to peptides or proteins having an amino acid sequence or nucleotide coding sequence at least partially known and methods of design therefor” (Board of Regents, The University of Texas System, priority 1991, dated 1993)", "key": {"I^125 ACTH (1-39)": {"target": "T1, I^125 ACTH (1-39) (Homo sapiens, UniProt P01189)", "T1 construct": "I^125 ACTH (1-39) (New England Nuclear Boston, Mass.); purchased New England Nuclear, Boston, Mass", "T1 sequence (P01189 138-176 limits assumed)": "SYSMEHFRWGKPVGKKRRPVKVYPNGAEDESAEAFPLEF", "assay": "125I-ACTH binding to peptide-coated microtiter wells", "settings": "for Bound CPM 125I-ACTH: coated wells; for Bound CPM 125I-ACTH + excess ACTH: excess unlabelled ACTH", "description": "Utilizing techniques described in Example 1B, polyvinyl microtiter wells were coated with 3'-5' HTCA from a 1 mM solution thereof or with BSA.\nThe BSA and 3'-5' HTCA coated wells were washed and then treated with one of three solutions of I^125 ACTH (1-39) (New England Nuclear Boston, Mass.) having different concentrations. After a forty five minute incubation period the solution was removed and the microtiter wells extensively washed. The microtiter wells were separated and assayed for iodine^125 content in a Beckman Gamma 5500 gamma counter. Bound ^125 I-ACTH was measured in duplicate at three concentrations in the absence and presence of excess unlabelled ACTH.\nUtilizing the cRNA sequence and HTCA sequence shown in Table 8 of Example 1A, a series of peptides having a carboxy-terminal portion of the HTCA amino acid were synthesized. A pentamer (5-mer) contained the amino acid sequence: H^2 N-Phe-His-Gly-Val-Arg-COOH. A decamer (10-mer) contained the amino acid sequence: H^2 N-[…]COOH. A twenty membered peptide (20-mer) contained the amino acids sequence: H2 N-[…] Val-ArQ-COOH. Each of these peptides was used to coat microtiter wells and the coated wells tested for the ability to hind ^125 I-ACTH as described in Example 1C.\nA 24-mer HTCA variant (R-HTCA) with reversed amino acid sequence directionality (amino-terminal and carboxy-terminal ends being reversed) was synthesized and had the following sequence: H2 N-[…] Arg-His-Leu-His-Val-Gly-COOH. The well-coating and ^125 I-ACTH binding procedures were performed as described in Example 1-C and the resultant data shown in Table 11."}, "angiotensin II receptors": {"test_system": "angiotensin II receptors", "assay": "Binding of [125I] angiotensin II to isolated hepatic receptor", "design": "species or system Rabbit", "settings": "concentration inhibiting binding of radiolabelled angiotensin II by 50%; 0.25 nM [125I] angiotensin II; 60 minutes 20 C", "description": "Inhibition of angiotensin II binding to angiotensin II receptors by complementary peptides was tested with measurement through the use of radioactive angiotensin II. Rabbit livers were homogenized, and were centrifuged in order to isolate particles sedimenting between 1,000 and 100,000 xg. Binding activity was solublized with 1% digitonin, followed by ammonium sulfate fractionation between 49 and 65% satuation followed by DEAE- cellulose chromatography at pH 7.5 using a linear gradient between 0.0 and 0.3 M KCl. The partially purified, solubilized receptor preparation bound 17 pmoles of angiotensin II per […] protein when analyzed by Scatchard analysis, indicating a purity of approximately 0.1%.\nThe standard assay for binding of angiotensin II to the receptor is as follows: The complete system (150 ul) contains 30 mM Tris-HCl, pH 7.5, 2.5 mM K2 EDTA, 0.2 mM PCMS, 0.25 nM [^125 I] angiotensin II ca. 100,000 cpm), 100 ug BSA, 0.25% (V/V) Brij 99 and 30 ug of partially purified receptor. […] Tubes are vortexed and then allowed to stand 10 minutes at 4° C., after which they are centrifuged and their supernatants, containing protein-bound angiotensin II, are counted.\nThe complete system under these conditions regularly yields about 10,000 cpm of bound radioactivity. […] Residual binding of radioactivity in this control was 35-45%. […]"}, "[1]": {"test_system": "LHRH-stimulated release of LH from pituitary cells", "assay": "Reverse hemolytic plaque assay, LHRH-stimulated LH release from pituitary cells", "format": "cell-based, rat", "settings": "Exp. 1 (Pre); 5x10^-10 M LHRH + peptide 10^-4 M", "description": "A reverse hemolytic plaque assay (Smith, et al.), Method in Enzymology, 124, p.\nPlaques were analyzed by determining plaque area with an image analysis (Bioguant or Image Technology Corp. Model 300) of ^125×-500 × microscopic enlargements."}, "ACTH (1-24)": {"target": "T2, ACTH (1-24) (Homo sapiens, UniProt P01189)", "T2 construct": "10 ug synthetic ACTH (1-24) in PBS-Tween buffer; purchased Organon (West Orange, N.J.); host or cells: chemical synthesis", "assay": "ELISA binding of ACTH (1-24) to HTCA-coated microtiter wells", "description": "From 1 to 25 micrograms (ug) per well of HTCA or insulin in carbonate-bicarbonate coating buffer were added to 96 well round bottom microtiter plates and incubated at 4° C. for 8 hr. The plates were then washed with phosphate buffered saline PBS)-Tween 20 (Sigma Chemical Co., St. Louis, Mo.) buffer.\nTo the insulin-coated wells and to some of the HTCA-coated wells was added 10 ug synthetic ACTH (1-24) in PBS-Tween buffer. Control wells (HTCA alone) contained only PBS-Tween. The plates were incubated at room temperature for 2 hr. and then washed three times with PBS-Tween buffer. […] Following 3 washes with PBS-Tween buffer, alkaline phosphatase-conjugated goat anti-rabbit Ig G (Miles Laboratories, Elkharbt, Ind.) in PBS-Tween buffer (1:300 dilution was added. After inculation at room temperature for 1 hr, the plates were washed three times with PBS-Tween buffer and each well was treated with 200 microliters (ul) of p-nitrophenyl phosphate (1 mg/ml in carbonate-bicarbonate buffer) for 11/2 hr. at room temperature. The enzymatic reaction was then stopped by the addition of 3N NaOH (50 ul) to each well and the optical absorbance of p-nitrophenol the alkaline phosphatase product, was measured at 405 nm. The ACTH bound to the coated microtiter wells was measured by this enzyme-linked immunoabsorbent assay (EL1SA). […]"}}, "note": "“And” between values parts separate entries of the source, which are not always exact repeats. Identical values can stand only once. Where no end group is shown, it is not given here."}
{"compound": "FHGVR [5-mer, H^2 N-Phe-His-Gly-Val-Arg-COOH]", "values": [{"measurement": "Bound CPM 125I-ACTH", "setting": "I^125 ACTH (1-39); 1:3 dilution 125I-ACTH", "value": "3,514 CPM and 3,655 CPM"}, {"measurement": "Bound CPM 125I-ACTH + excess ACTH", "setting": "I^125 ACTH (1-39); 1:3 dilution 125I-ACTH", "value": "97 CPM and 95 CPM"}, {"measurement": "Bound CPM 125I-ACTH", "setting": "I^125 ACTH (1-39); 1:9 dilution 125I-ACTH", "value": "995 CPM and 993 CPM"}, {"measurement": "Bound CPM 125I-ACTH + excess ACTH", "setting": "I^125 ACTH (1-39); 1:9 dilution 125I-ACTH", "value": "56 CPM and 52 CPM"}, {"measurement": "Bound CPM 125I-ACTH", "setting": "I^125 ACTH (1-39); conc 125I-ACTH", "value": "10,252 CPM and 11,388 CPM"}, {"measurement": "Bound CPM 125I-ACTH + excess ACTH", "setting": "I^125 ACTH (1-39); conc 125I-ACTH", "value": "233 CPM and 245 CPM"}]}
{"compound": "HRAPLLAHRLAPAEVFHGVR [20-mer]", "values": [{"measurement": "Bound CPM 125I-ACTH", "setting": "I^125 ACTH (1-39); 1:3 dilution 125I-ACTH", "value": "613 CPM and 625 CPM"}, {"measurement": "Bound CPM 125I-ACTH + excess ACTH", "setting": "I^125 ACTH (1-39); 1:3 dilution 125I-ACTH", "value": "113 CPM and 83 CPM"}, {"measurement": "Bound CPM 125I-ACTH", "setting": "I^125 ACTH (1-39); 1:9 dilution 125I-ACTH", "value": "238 CPM and 215 CPM"}, {"measurement": "Bound CPM 125I-ACTH + excess ACTH", "setting": "I^125 ACTH (1-39); 1:9 dilution 125I-ACTH", "value": "39 CPM and 48 CPM"}, {"measurement": "Bound CPM 125I-ACTH", "setting": "I^125 ACTH (1-39); conc 125I-ACTH", "value": "1978 CPM and 1768 CPM"}, {"measurement": "Bound CPM 125I-ACTH + excess ACTH", "setting": "I^125 ACTH (1-39); conc 125I-ACTH", "value": "229 CPM and 213 CPM"}]}
{"compound": "GLUGLU-VAL-LYS-GLY-VAL-TYR-ILE-HIS-ALA-LEU (EEVKGVYIHAL; printed: GLUGLU-VAL-LYS-GLY-VAL-TYR-ILE-HIS-ALA-LEU) [CCA-AI]", "values": [{"measurement": "ID50", "setting": "angiotensin II receptors", "value": 490, "unit": "nM"}]}
{"compound": "Ac-KGVYIHAL-NH2 [CCA-AII (Ac, Am), Ac--LYS--GLY--VAL--TYR--ILE--HIS--ALA--LEU--Am]", "values": [{"measurement": "ID50", "setting": "angiotensin II receptors", "value": "3,100 nM"}]}
{"compound": "RVGHFVEAPALRHALLPARHLHVG [R-HTCA]", "values": [{"measurement": "binding of 125I-ACTH to coated peptide (in words)", "setting": "I^125 ACTH (1-39)", "value": "significant affinity for ACTH"}, {"measurement": "Bound CPM 125I-ACTH", "setting": "I^125 ACTH (1-39); 1:3 dilution 125I-ACTH", "value": "2,997 CPM and 3,209 CPM"}, {"measurement": "Bound CPM 125I-ACTH + excess ACTH", "setting": "I^125 ACTH (1-39); 1:3 dilution 125I-ACTH", "value": "140 CPM and 121 CPM"}, {"measurement": "Bound CPM 125I-ACTH", "setting": "I^125 ACTH (1-39); 1:9 dilution 125I-ACTH", "value": "1,101 CPM and 1,161 CPM"}, {"measurement": "Bound CPM 125I-ACTH + excess ACTH", "setting": "I^125 ACTH (1-39); 1:9 dilution 125I-ACTH", "value": "65 CPM and 69 CPM"}, {"measurement": "Bound CPM 125I-ACTH", "setting": "I^125 ACTH (1-39); conc 125I-ACTH", "value": "10,392 CPM and 10,709 CPM"}, {"measurement": "Bound CPM 125I-ACTH + excess ACTH", "setting": "I^125 ACTH (1-39); conc 125I-ACTH", "value": "303 CPM and 325 CPM"}]}
{"compound": "C[C@H](N)C(=O)NCC(=O)N[C@H]1CSSC[C@@H](C(=O)O)NC(=O)[C@H](CO)NC(=O)[C@H]([C@@H](C)O)NC(=O)[C@H](Cc2ccccc2)NC(=O)[C@H]([C@@H](C)O)NC(=O)[C@H](CCCCN)NC(=O)[C@H](Cc2c[nH]c3ccccc23)NC(=O)[C@H](Cc2ccccc2)NC(=O)[C@H](Cc2ccccc2)NC(=O)[C@H](CC(N)=O)NC(=O)[C@H](CCCCN)NC1=O", "note": "[Somatostatin]", "values": [{"measurement": "plaque area, percentage response to control (5x10^-10 M LHRH)", "setting": "[1]", "value": 103, "unit": "%"}]}
{"compound": "APAEVFHGVR [10-mer]", "values": [{"measurement": "Bound CPM 125I-ACTH", "setting": "I^125 ACTH (1-39); 1:3 dilution 125I-ACTH", "value": "3391 CPM and 2931 CPM"}, {"measurement": "Bound CPM 125I-ACTH + excess ACTH", "setting": "I^125 ACTH (1-39); 1:3 dilution 125I-ACTH", "value": "132 CPM and 143 CPM"}, {"measurement": "Bound CPM 125I-ACTH", "setting": "I^125 ACTH (1-39); 1:9 dilution 125I-ACTH", "value": "872 CPM and 1062 CPM"}, {"measurement": "Bound CPM 125I-ACTH + excess ACTH", "setting": "I^125 ACTH (1-39); 1:9 dilution 125I-ACTH", "value": "62 CPM and 58 CPM"}, {"measurement": "Bound CPM 125I-ACTH", "setting": "I^125 ACTH (1-39); conc 125I-ACTH", "value": "8,927 CPM and 9,072 CPM"}, {"measurement": "Bound CPM 125I-ACTH + excess ACTH", "setting": "I^125 ACTH (1-39); conc 125I-ACTH", "value": "345 CPM and 350 CPM"}]}
{"compound": "RMRYLVKATPFGHPFFAAGHFHMG [3'-5' HTCA]", "values": [{"measurement": "binding of 125I-ACTH to coated peptide (in words)", "setting": "I^125 ACTH (1-39)", "value": "binds"}, {"measurement": "Bound CPM 125I-ACTH", "setting": "I^125 ACTH (1-39); 1:3 dilution 125I-ACTH", "value": 590, "unit": "CPM"}, {"measurement": "Bound CPM 125I-ACTH + excess ACTH", "setting": "I^125 ACTH (1-39); 1:3 dilution 125I-ACTH", "value": "287 CPM and 299 CPM"}, {"measurement": "Bound CPM 125I-ACTH + excess ACTH", "setting": "I^125 ACTH (1-39); 1:9 dilution 125I-ACTH", "value": "191 CPM and 183 CPM"}, {"measurement": "Bound CPM 125I-ACTH + excess ACTH", "setting": "I^125 ACTH (1-39); conc 125I-ACTH", "value": "616 CPM and 615 CPM"}]}
{"compound": "insulin: control coating protein [reference compound]", "values": [{"measurement": "binding of synthetic ACTH (1-24) to coated wells", "setting": "ACTH (1-24); 10 ug ACTH (1-24), coating 1 to 25 ug/well", "value": "nor does ACTH bind"}]}
{"compound": "GVHLHRAPLLAHRLAPAEVFHGVR [HTCA]", "values": [{"measurement": "specific part of ACTH-HTCA binding", "setting": "ACTH (1-24); wells coated 3.7 nmol/well HTCA, ELISA", "value": "about 90%"}]}
